According to patent publication US12577206B2 (BRISTOL-MYERS SQUIBB COMPANY, priority 2020, dated 2026):

Assays:
human FPR2 = molecular target: T1, human FPR2 (Homo sapiens, UniProt P25090); assay: FPR2 cyclic adenosine monophosphate (cAMP) assay; type: cell-based; settings: CHO cells overexpressing human FPR2; forskolin 5 μM; inhibition of cAMP production; HTRF; read-out: hFPR2 cAMP2 EC50
T1 sequence (P25090 1-351): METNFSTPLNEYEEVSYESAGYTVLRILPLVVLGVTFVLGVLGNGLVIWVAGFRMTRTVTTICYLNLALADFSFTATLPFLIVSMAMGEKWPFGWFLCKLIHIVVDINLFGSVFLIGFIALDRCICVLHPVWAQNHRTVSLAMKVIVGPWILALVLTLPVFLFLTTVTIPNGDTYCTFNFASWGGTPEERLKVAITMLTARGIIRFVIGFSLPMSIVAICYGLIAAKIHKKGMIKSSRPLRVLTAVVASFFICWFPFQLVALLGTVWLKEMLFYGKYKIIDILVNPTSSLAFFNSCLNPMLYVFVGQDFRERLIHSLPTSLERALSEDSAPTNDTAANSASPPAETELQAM
In short: (§1)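 CHO cells overexpressing human FPR1 (4,000/well) or FPR2 (2,000/well) were incubated 30 min at room temperature with compound (0.020 nM to 100 μM, 1% DMSO), IBMX 200 μM, and forskolin at 10 μM (FPR1) or 5 μM (FPR2), all final. HTRF cAMP read-out; inhibition fitted by 4-parameter logistic equation.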

human FPR1 = molecular target: T2, human FPR1 (Homo sapiens, UniProt P21462); assay: FPR1 cyclic adenosine monophosphate (cAMP) assay; type: cell-based; settings: CHO cells overexpressing human FPR1; forskolin 10 μM; inhibition of cAMP production; HTRF; read-out: hFPR1 cAMP2 EC50
T2 sequence (P21462 1-350): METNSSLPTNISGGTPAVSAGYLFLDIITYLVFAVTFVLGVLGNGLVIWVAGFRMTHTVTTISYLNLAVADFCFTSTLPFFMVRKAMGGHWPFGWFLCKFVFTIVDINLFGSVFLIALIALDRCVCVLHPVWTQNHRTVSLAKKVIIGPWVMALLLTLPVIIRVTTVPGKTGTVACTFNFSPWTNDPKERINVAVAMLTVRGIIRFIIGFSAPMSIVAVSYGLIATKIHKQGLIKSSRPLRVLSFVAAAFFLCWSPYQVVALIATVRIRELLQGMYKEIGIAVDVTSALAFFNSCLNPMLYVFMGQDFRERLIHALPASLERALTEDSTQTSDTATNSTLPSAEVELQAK
In short: as §1

SMILES | EC50 (human FPR2) [nM] | EC50 (human FPR1) [nM]
COc1cc(F)c(-c2c(NC(=O)c3ccc(OC(F)F)cc3)c(=O)n(-c3nc(C)ccc3C#N)n2C)c(F)c1 [Example 357, N-(2-(3-Cyano-6-methylpyridin-2-yl)-5-(2,6-difluoro-4-methoxyphenyl)-1-methyl-3-oxo-2,3-dihydro-1H-pyrazol-4-yl)-4-(difluoromethoxy)benzamide] | 5 | > 10000
COc1cc(F)c(-c2c(NC(=O)c3ccc(OC(F)F)cc3)c(=O)n(-c3nc(C(F)(F)F)ccc3OCC3(C)COC3)n2C)c(F)c1 [Example 358, N-(5-(2,6-Difluoro-4-methoxyphenyl)-1-methyl-2-(3-((3-methyloxetan-3-yl)methoxy)-6-(trifluoromethyl)pyridin-2-yl)-3-oxo-2,3-dihydro-1H-pyrazol-4-yl)-4-(difluoromethoxy)benzamide] | 9 | > 10000
COc1cc(F)c(-c2c(NC(=O)c3ccc(OC(F)F)cc3)c(=O)n(-c3cc(C)cc(OC4CCOC4)n3)n2C)c(F)c1 (stereo not shown) [Example 359, N-(5-(2,6-Difluoro-4-methoxyphenyl)-1-methyl-2-(4-methyl-6-((tetrahydrofuran-3-yl)oxy)pyridin-2-yl)-3-oxo-2,3-dihydro-1H-pyrazol-4-yl)-4-(difluoromethoxy)benzamide] | 5 | > 10000
COc1cc(F)c(-c2c(NC(=O)c3ccc(OC(F)F)cc3)c(=O)n(-c3cc(C)cc(OC4CCOC4)n3)n2C)c(F)c1 (stereo not shown) [Example 360, N-(5-(2,6-Difluoro-4-methoxyphenyl)-1-methyl-2-(4-methyl-6-((tetrahydrofuran-3-yl)oxy)pyridin-2-yl)-3-oxo-2,3-dihydro-1H-pyrazol-4-yl)-4-(difluoromethoxy)benzamide] | 4 | > 10000
COc1cc(F)c(-c2c(NC(=O)c3ccc(OC(F)F)cc3)c(=O)n(-c3cc(C)cc(C4CCN(C)CC4)n3)n2C)c(F)c1 [Example 361] | 1 | > 10000
COc1cc(F)c(-c2c(NC(=O)c3ccc(OC(F)F)cc3)c(=O)n(-c3cc(C)cc(C#N)n3)n2C)c(F)c1 [Example 362, N-(2-(6-Cyano-4-methylpyridin-2-yl)-5-(2,6-difluoro-4-methoxyphenyl)-1-methyl-3-oxo-2,3-dihydro-1H-pyrazol-4-yl)-4-(difluoromethoxy)benzamide] | 10 | > 10000
COc1cc(C2CCN(C)CC2)nc(-n2c(=O)c(NC(=O)c3ccc(OC(F)F)cc3)c(-c3c(F)cc(OC)cc3F)n2C)c1 [Example 363, N-(5-(2,6-Difluoro-4-methoxyphenyl)-2-(4-methoxy-6-(1-methylpiperidin-4-yl)pyridin-2-yl)-1-methyl-3-oxo-2,3-dihydro-1H-pyrazol-4-yl)-4-(difluoromethoxy)benzamide] | 3 | > 10000
COc1cc(N2CCOCC2)nc(-n2c(=O)c(NC(=O)c3ccc(OC(F)F)cc3)c(-c3c(F)cc(OC)cc3F)n2C)c1 [Example 364, N-(5-(2,6-Difluoro-4-methoxyphenyl)-2-(4-methoxy-6-morpholinopyridin-2-yl)-1-methyl-3-oxo-2,3-dihydro-1H-pyrazol-4-yl)-4-(difluoromethoxy)benzamide] | 62 | 2100
COc1cc(C2CCN(S(C)(=O)=O)CC2)nc(-n2c(=O)c(NC(=O)c3ccc(OC(F)F)cc3)c(-c3c(F)cc(OC)cc3F)n2C)c1 [Example 366, N-(5-(2,6-Difluoro-4-methoxyphenyl)-2-(4-methoxy-6-(1-(methylsulfonyl)piperidin-4-yl)pyridin-2-yl)-1-methyl-3-oxo-2,3-dihydro-1H-pyrazol-4-yl)-4-(difluoromethoxy)benzamide] | 7 | > 10000
COc1cc(C2CCN(CCO)CC2)nc(-n2c(=O)c(NC(=O)c3ccc(OC(F)F)cc3)c(-c3c(F)cc(OC)cc3F)n2C)c1 [Example 368, N-(5-(2,6-Difluoro-4-methoxyphenyl)-2-(6-(1-(2-hydroxyethyl)piperidin-4-yl)-4-methoxypyridin-2-yl)-1-methyl-3-oxo-2,3-dihydro-1H-pyrazol-4-yl)-4-(difluoromethoxy)benzamide] | 7 | > 10000
COc1cc(F)c(-c2c(NC(=O)c3ccc(OC(F)F)cc3)c(=O)n(-c3nc(C(F)(F)F)ccc3OCC3CCOC3)n2C)c(F)c1 (stereo not shown) [Example 369, N-(5-(2,6-Difluoro-4-methoxyphenyl)-1-methyl-3-oxo-2-(3-((tetrahydrofuran-3-yl)methoxy)-6-(trifluoromethyl)pyridin-2-yl)-2,3-dihydro-1H-pyrazol-4-yl)-4-(difluoromethoxy)benzamide] | 5 | > 10000
COc1cc(F)c(-c2c(NC(=O)c3ccc(OC(F)F)cc3)c(=O)n(-c3nc(C(F)(F)F)ccc3OCC3CCOC3)n2C)c(F)c1 (stereo not shown) [Example 370, N-(5-(2,6-Difluoro-4-methoxyphenyl)-1-methyl-3-oxo-2-(3-((tetrahydrofuran-3-yl)methoxy)-6-(trifluoromethyl)pyridin-2-yl)-2,3-dihydro-1H-pyrazol-4-yl)-4-(difluoromethoxy)benzamide] | 5 | > 10000
COc1cc(F)c(-c2c(NC(=O)c3ccc(OC(F)F)cc3)c(=O)n(-c3nc(C(F)(F)F)ccc3OC)n2C)c(F)c1 [Example 371, N-(5-(2,6-Difluoro-4-methoxyphenyl)-2-(3-methoxy-6-(trifluoromethyl)pyridin-2-yl)-1-methyl-3-oxo-2,3-dihydro-1H-pyrazol-4-yl)-4-(difluoromethoxy)benzamide] | 6 | 240
COc1cc(F)c(-c2c(NC(=O)c3ccc(OC(F)F)cc3)c(=O)n(-c3nc(C(F)(F)F)ccc3OCCO)n2C)c(F)c1 [Example 372, N-(5-(2,6-Difluoro-4-methoxyphenyl)-2-(3-(2-hydroxyethoxy)-6-(trifluoromethyl)pyridin-2-yl)-1-methyl-3-oxo-2,3-dihydro-1H-pyrazol-4-yl)-4-(difluoromethoxy)benzamide] | 6 | > 10000
COc1cc(F)c(-c2c(NC(=O)c3ccc(OC(F)F)cc3)c(=O)n(-c3nc(C(F)(F)F)ccc3OC[C@H](C)O)n2C)c(F)c1 [Example 373, (S)-N-(5-(2,6-Difluoro-4-methoxyphenyl)-2-(3-(2-hydroxypropoxy)-6-(trifluoromethyl)pyridin-2-yl)-1-methyl-3-oxo-2,3-dihydro-1H-pyrazol-4-yl)-4-(difluoromethoxy)benzamide] | 16 | > 10000
COc1cc(F)c(-c2c(NC(=O)c3ccc(OC(F)F)cc3)c(=O)n(-c3nc(C(F)(F)F)ccc3NCCO)n2C)c(F)c1 [Example 374, N-(5-(2,6-Difluoro-4-methoxyphenyl)-2-(3-((2-hydroxyethyl)amino)-6-(trifluoromethyl)pyridin-2-yl)-1-methyl-3-oxo-2,3-dihydro-1H-pyrazol-4-yl)-4-(difluoromethoxy)benzamide] | 22 | 320
COc1cc(F)c(-c2c(NC(=O)c3ccc(OC(F)F)cc3)c(=O)n(-c3nc(C(F)(F)F)ccc3N(C)CCO)n2C)c(F)c1 [Example 375, N-(5-(2,6-Difluoro-4-methoxyphenyl)-2-(3-((2-hydroxyethyl)(methyl)amino)-6-(trifluoromethyl)pyridin-2-yl)-1-methyl-3-oxo-2,3-dihydro-1H-pyrazol-4-yl)-4-(difluoromethoxy)benzamide] | 3 | > 10000
COc1cc(C)nc(-n2c(=O)c(NC(=O)c3ccc(OC(F)F)cc3)c(-c3c(F)cc(OC)cc3F)n2C)c1 [Example 376, N-(5-(2,6-Difluoro-4-methoxyphenyl)-2-(4-methoxy-6-methylpyridin-2-yl)-1-methyl-3-oxo-2,3-dihydro-1H-pyrazol-4-yl)-4-(difluoromethoxy)benzamide] | 5 | > 10000
COc1cc(F)c(-c2c(NC(=O)c3ccc(OC(F)F)cc3)c(=O)n(-c3cc(OC(C)C)cc(OCC(C)(C)O)n3)n2C)c(F)c1 [Example 377, N-(5-(2,6-Difluoro-4-methoxyphenyl)-2-(6-(2-hydroxy-2-methylpropoxy)-4-isopropoxypyridin-2-yl)-1-methyl-3-oxo-2,3-dihydro-1H-pyrazol-4-yl)-4-(difluoromethoxy)benzamide] | 8 | 470
COc1cc(OCCC(C)(C)O)nc(-n2c(=O)c(NC(=O)c3ccc(OC(F)F)cc3)c(-c3c(F)cc(OC)cc3F)n2C)c1 [Example 379, N-(5-(2,6-Difluoro-4-methoxyphenyl)-2-(6-(3-hydroxy-3-methylbutoxy)-4-methoxypyridin-2-yl)-1-methyl-3-oxo-2,3-dihydro-1H-pyrazol-4-yl)-4-(difluoromethoxy)benzamide] | 7 | > 10000
